Test results: US8338089B2, “Method of inhibiting lentiviral infectivity utilizing zinc chelation to inhibit Vif activity” (The Johns Hopkins University, priority 2006, dated 2012)
“And” between values parts separate entries of the source, which are not always exact repeats. Equal entries are not always repeated.

Experiments:
lentivirus = test: Inhibition in a method of the invention (lentiviral infectivity)
[1] = biological target: T1, HIV-1 Vif-Cul5 interaction (Human immunodeficiency virus type 1 group M subtype B, UniProt P69723); test: Vif-HA immunoprecipitation and immunoblot for Cul5, ElonginB, ElonginC in Vif-expressing 293T cells; assay type: cell-based
T1 construct: expressed in transfected cells; host or cells: 293T
Experimental: The Cul5-Vif E3 ubiquitin ligase binds A3G and brings it in close proximity with the E2 ubiquitin conjugating enzyme. Polyubiquitinated A3G is recognized by the proteasome and subsequently degraded. […] 293T cells were transfected with Vif-HA expression vectors as previously described and treated with the indicated amounts of TPEN. Vif-HA was immunoprecipitated and eluted materials were then analyzed by SDS-PAGE and immunoblotting for Cul5, Vif-HA, ElonginB, and ElonginC. […] 293T cells were transfected with Vif-HA and treated with the indicated amounts of TPEN. Cell lysates were harvested and analyzed by SDS-PAGE and immunoblotting for Cul5 and Vif-HA.
(§1) Medium was removed 12 h prior to harvesting cells and replaced with either fresh medium alone or medium containing the indicated concentration of TPEN (Sigma). After a 12-h incubation, the cells were harvested for immunoprecipitation and immunoblot analysis, or the medium was collected for MAGI assay.
Transfected 293T cells were harvested, washed twice with cold PBS, and lysed in lysis buffer (50 mM Tris, pH 7.5, with 150 mM NaCl, 1% Triton X-100, and complete protease inhibitor cocktail tablets) at 4° C. for 1 h, then centrifuged at 10,000×g for 30 min. For myc-tag immunoprecipitation, precleared cell lysates were mixed with anti-myc antibody (Upstate) and incubated with protein G at 4° C. for 3 h. For HA tag immunoprecipitation, precleared cell lysates were mixed with anti-HA antibody-conjugated agarose beads (Roche) and incubated at 4° C. for 3 h. Samples were then washed three times with washing buffer (20 mM Tris, pH 7.5, with 100 mM NaCl, 0.1 mM EDTA, and 0.05% Tween-20). The beads were eluted with elution buffer (0.1 M glycine-HCl, pH 2.0) or 2× loading buffer. The eluted materials were then analyzed by SDS-PAGE and immunoblotting as previously described (Yu et al. (2003) (supra)).

[2] = test system: SIVagm Vif-Cul5 interaction; test: SIVagm Vif immunoprecipitation and immunoblot in 293T cells; assay type: cell-based; conditions: 4 μM TPEN vs vehicle DMSO
Experimental: (§2) Hydrophobic residues are represented by a Phi (Φ). […] 293T cells were transfected with the indicated SIV Vif expression vectors and treated with 4 μM TPEN. Cell lysates were immunoprecipitated and analyzed by SDS-PAGE followed immunoblotting for Cul5, HA, ElonginB, and ElonginC. […] 293T cells were transfected with SOCS-3-HA and treated with 4 μM TPEN. Cell lysates were immunoprecipitated and analyzed by SDS-PAGE and immunoblotting.
as §1
(§3) Transfected 293T cells were harvested, washed twice with cold PBS, and lysed in lysis buffer (50 mM Tris, pH 7.5, with 150 mM NaCl, 1% Triton X-100, and complete protease inhibitor cocktail tablets) at 4° C. for 1 h, then centrifuged at 10,000×g for 30 min. For myc-tag immunoprecipitation, precleared cell lysates were mixed with anti-myc antibody (Upstate) and incubated with protein G at 4° C. for 3 h. […] The eluted materials were then analyzed by SDS-PAGE and immunoblotting as previously described (Yu et al. (2003) (supra)). […]

[3] = test system: SIVsyk Vif-Cul5 interaction; test: SIVsyk Vif immunoprecipitation and immunoblot in 293T cells; assay type: cell-based; conditions: 4 μM TPEN vs vehicle DMSO
Experimental: as §2, §1, §3

Cul5-SOCS-3 E3 ligase = biological target: T2, Cul5-SOCS-3 E3 ligase (Homo sapiens, UniProt O14543); test: SOCS-3-HA immunoprecipitation and immunoblot in 293T cells; assay type: cell-based; conditions: 4 μM TPEN vs control DMSO
T2 construct: expressed in transfected cells; host or cells: 293T
T2 sequence (O14543 1-225): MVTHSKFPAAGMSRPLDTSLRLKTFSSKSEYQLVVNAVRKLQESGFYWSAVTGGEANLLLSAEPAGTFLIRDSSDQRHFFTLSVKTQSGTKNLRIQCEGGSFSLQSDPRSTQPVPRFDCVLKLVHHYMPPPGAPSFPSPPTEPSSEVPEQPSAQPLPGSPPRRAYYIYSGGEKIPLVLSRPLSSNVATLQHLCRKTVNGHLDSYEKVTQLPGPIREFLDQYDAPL
Experimental: as §2, §1, §3

[4] = test system: HIV-1 Vif mediated A3G degradation; test: Vif mediated A3G degradation in transfected 293T cells (immunoblot); assay type: cell-based
Experimental: (§4) 293T cells were transfected with the indicated plasmids in the presence of 4 μM TPEN or control vehicle. Cell lysates were analyzed for A3G degradation by SDS-PAGE followed by immunoblotting for A3G-HA, Vif-myc, and ribosomal p19 as a loading control. […] 293T cells were transfected with the indicated plasmids and treated with […] TPEN or control vehicle. Vif-HA was immunoprecipitated from prepared lysates. Lysates were analyzed by SDS-PAGE followed by immunoblotting for Vif-HA and A3G-myc. […] Cells were infected with WT or ΔVif NL4-3 virus in the presence of A3G-myc and treated with 4 μM TPEN or DMSO. Cells were harvested and virus was isolated from the supernatant by ultracentrifugation and analyzed by SDS PAGE and immunoblotting against Vif, myc, and p24. […] Adenovirus E4orf6 mediated p53 degradation is not affected by 4 μM TPEN. […] Cells were harvested and analyzed for p53 degradation by SDS-PAGE followed by immunoblotting for p53, E4orf6-myc, and ribosomal p19 as a loading control. […]
as §3, with “min.” for “min. For myc-tag immunoprecipitation, precleared cell lysates were mixed with anti-myc antibody (Upstate) and incubated with protein G at 4° C. for 3 h.”

Vif-A3G interaction = biological target: T3, Vif-A3G interaction (Human immunodeficiency virus type 1 group M subtype B, UniProt P69723); test: Vif-A3G co-immunoprecipitation in 293T cells; assay type: cell-based, HIV-1; conditions: 4 μM TPEN vs control vehicle
T3 construct: expressed in transfected cells; host or cells: 293T
Experimental: as §4
as §3, with “min.” for “min. For myc-tag immunoprecipitation, precleared cell lysates were mixed with anti-myc antibody (Upstate) and incubated with protein G at 4° C. for 3 h.”

[5] = test system: virion incorporation of A3G; test: A3G levels in cells and virions, WT or ΔVif NL4-3 virus with A3G-myc; assay type: cell-based, HIV-1; conditions: 4 μM TPEN vs DMSO
Experimental: 293T cells were transfected with the indicated plasmids in the presence of 4 μM TPEN or control vehicle. Cell lysates were analyzed for A3G degradation by SDS-PAGE followed by immunoblotting for A3G-HA, Vif-myc, and ribosomal p19 as a loading control. […] 293T cells were transfected with the indicated plasmids and treated with […] TPEN or control vehicle. Vif-HA was immunoprecipitated from prepared lysates. Lysates were analyzed by SDS-PAGE followed by immunoblotting for Vif-HA and A3G-myc. […] Cells were infected with WT or ΔVif NL4-3 virus in the presence of A3G-myc and treated with 4 μM TPEN or DMSO. Cells were harvested and virus was isolated from the supernatant by ultracentrifugation and analyzed by SDS PAGE and immunoblotting against Vif, myc, and p24. […] Adenovirus E4orf6 mediated p53 degradation is not affected by 4 μM TPEN. 293T cells were transfected with p53 and E4orf6-myc expression vectors in the presence of 4 μM TPEN or control vehicle. Cells were harvested and analyzed for p53 degradation by SDS-PAGE followed by immunoblotting for p53, E4orf6-myc, and ribosomal p19 as a loading control.
Medium was removed 12 h prior to harvesting cells and replaced with either fresh medium alone or medium containing the indicated concentration of TPEN (Sigma). […]

[6] = test system: Rbx function (E4orf6 mediated p53 degradation); test: Adenovirus E4orf6 mediated p53 degradation in 293T cells (Rbx function); assay type: cell-based; conditions: 4 μM TPEN
Experimental: as §4
as §3, with “min.” for “min. For myc-tag immunoprecipitation, precleared cell lysates were mixed with anti-myc antibody (Upstate) and incubated with protein G at 4° C. for 3 h.”

[7] = test system: NL4-3 virus infectivity in MAGI cells; test: MAGI assay of virus infectivity, virus produced in 293T or 293T-A3G cells; assay type: cell-based, HIV-1
Experimental: MAGI cells were infected with wild-type or Vif deficient NL4-3 produced in the absence or presence of A3G and […] TPEN as indicated. Relative infectivity was calculated by setting wild type virus infectivity to 100% (lane 1).
293T and MAGI-CCR5 cells (Chackerian et al. (1997) J Virol 71, 3932-3939) were maintained and transfected or infected as previously described (Yu et al. (2003) (supra)). The MAGI assay was performed as described previously and the antibodies used in this study have been described: anti-HA antibody-agarose conjugate, anti-myc antibody-agarose conjugate, anti-Vif, anti-Elongin B, anti-Elongin C, anti-Myc, anti-HA, and anti-human ribosomal P antigens (Yu et al. (2003) (supra)). The anti-p53 mouse mAb was obtained from Oncogene Research Products (Cat. #OP03).
as §1
In order to assess the biological relevance of the zinc requirement in Vif-Cul5 interaction and assess whether A3G retained antiviral function in the presence of 7 μM TPEN, we studied the effect of TPEN on virus infectivity. MAGI cells were infected with wild type or Vif deficient virus produced in 293T or 293T-A3G cells in the presence of 7 μM TPEN or control DMSO. We set the infectivity of WT virus in the absence of A3G to 100%, and calculated the relative infectivity under all treated conditions (FIG. 4). As expected, in the presence of A3G and the absence of Vif, there was a drastic decrease of infectivity to 8% (FIG. 4, lane 4). However in the presence of Vif, A3G was neutralized resulting in 91% infectivity (FIG. 4, lane 3). One would expect zinc chelation to have an effect on virus infectivity independent of Vif function. We observed a modest decrease in infectivity, of about 15% even in the absence of A3G (FIG. 4, lanes, 5 and 6). […]

T1 sequence (Q15370 whole entry): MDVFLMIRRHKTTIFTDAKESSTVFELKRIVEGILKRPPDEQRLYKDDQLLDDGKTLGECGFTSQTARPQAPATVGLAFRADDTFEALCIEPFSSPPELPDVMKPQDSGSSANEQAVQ
T1 sequence (Q15369 whole entry, further chain): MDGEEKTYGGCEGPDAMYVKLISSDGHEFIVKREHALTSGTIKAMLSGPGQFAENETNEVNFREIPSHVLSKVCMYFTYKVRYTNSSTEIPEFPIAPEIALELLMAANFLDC
T1 sequence (Q13951 whole entry, further chain): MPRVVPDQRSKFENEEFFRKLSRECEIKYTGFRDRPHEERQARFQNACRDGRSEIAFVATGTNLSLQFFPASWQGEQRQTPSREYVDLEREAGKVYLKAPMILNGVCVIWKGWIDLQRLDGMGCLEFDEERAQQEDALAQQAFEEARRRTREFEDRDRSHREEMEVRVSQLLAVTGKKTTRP
T1 sequence (P69723 whole entry): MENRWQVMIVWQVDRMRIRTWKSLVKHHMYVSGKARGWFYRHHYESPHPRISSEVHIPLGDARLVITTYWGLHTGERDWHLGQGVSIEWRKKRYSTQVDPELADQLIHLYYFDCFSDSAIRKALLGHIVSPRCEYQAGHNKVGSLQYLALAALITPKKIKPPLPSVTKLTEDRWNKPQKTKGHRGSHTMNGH
T3 sequence (Q9HC16 whole entry): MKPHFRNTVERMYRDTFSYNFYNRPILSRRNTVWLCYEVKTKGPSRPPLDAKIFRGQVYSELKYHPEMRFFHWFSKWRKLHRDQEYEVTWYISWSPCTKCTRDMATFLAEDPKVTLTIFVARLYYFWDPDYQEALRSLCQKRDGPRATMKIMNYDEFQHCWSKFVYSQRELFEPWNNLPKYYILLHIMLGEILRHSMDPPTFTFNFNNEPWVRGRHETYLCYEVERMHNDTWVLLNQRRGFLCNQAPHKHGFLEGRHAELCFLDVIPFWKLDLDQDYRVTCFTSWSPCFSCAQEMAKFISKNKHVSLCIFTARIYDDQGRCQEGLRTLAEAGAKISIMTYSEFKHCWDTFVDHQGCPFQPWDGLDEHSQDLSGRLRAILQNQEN
T3 sequence (P69723 whole entry): as the sequence (P69723 whole entry) above
T3 sequence (Q13951 whole entry, further chain): as the sequence (Q13951 whole entry, further chain) above
T3 sequence (Q15369 whole entry, further chain): as the sequence (Q15369 whole entry, further chain) above
T3 sequence (Q15370 whole entry, further chain): as the sequence (Q15370 whole entry) above

SMILES	effectiveness as inhibitor in a method of the invention (lentivirus)	effect on cellular Cul5 protein levels ([1]; 293T cells transfected with Vif-HA, cell lysates)	IC50 ([1]; IC50, decrease of Cul5-Vif interaction, Vif-expressing 293T cells, increasing concentrations of TPEN, 12-h incubation)	interaction of Vif with ElonginB and ElonginC ([1]; Vif-expressing 293T cells, increasing concentrations of TPEN)	Cul5 co-immunoprecipitation with SIVagm Vif [2]	ElonginB and ElonginC detected with SIVagm Vif [2]	Cul5 co-immunoprecipitation with SIVsyk Vif [3]	ElonginB and ElonginC detected with SIVsyk Vif [3]	interaction of SOCS-3 with Cul5 (Cul5-SOCS-3 E3 ligase)	A3G expression or stability in the absence of HIV-1 Vif ([4]; 4 μM TPEN)	A3G degradation induced by HIV-1 Vif ([4]; 4 μM TPEN vs control vehicle)	effect on Vif-A3G interaction (Vif-A3G interaction)	A3G incorporation into virions in the presence of Vif [5]	cellular A3G protein levels in the presence of Vif [5]	p53 levels in the presence of E4orf6 [6]	decrease in infectivity in the absence of A3G ([7]; 7 μM TPEN on producer cells, relative to WT virus without A3G = 100%)	infectivity loss in the presence of A3G and Vif ([7]; 7 μM TPEN on producer cells, relative to WT virus without A3G = 100%, 91% infectivity without TPEN)	effect on A3G function ([7]; 7 μM TPEN, FIG. 4 lanes 7 and 8)
Oc1ccc(O)c(Cl)c1 [Chloroquinol]	not an effective inhibitor																	
c1ccc(CN(CCN(Cc2ccccn2)Cc2ccccn2)Cc2ccccn2)nc1 [TPEN, N,N,N′,N′-Tetrakis-(2-pyridylmethyl)ethylenediamine]		did not have any effect	~1790 nM and 1790 nM	remained constant	marked decrease	equal amounts	marked decrease	equal amounts	equal interaction	no effect	abolished	no effect	enhancing incorporation	increased	declined	about 15%	about 87%	no effect
